pIC50, pKd: −log10 of the molar value. The source made the active and inactive calls. No cut-off for these calls is given here.
Assays:
[1] = tested on: MCF7; assay: Induction of apoptosis in human MCF7 cells assessed as late apoptotic cells at 20 uM incubated for 24 hrs by Annexin V-FITC/7AAD staining based flow cytometery (reference value: 0.68%); format: functional
[2] = tested on: MCF7; assay: Induction of apoptosis in human MCF7 cells assessed as early apoptotic cells at 10 uM incubated for 24 hrs by Annexin V-FITC/7AAD staining based flow cytometery (reference value: 0.50%); format: functional
[3] = tested on: MCF7; assay: Induction of apoptosis in human MCF7 cells assessed as necrotic cells at 20 uM incubated for 24 hrs by Annexin V-FITC/7AAD staining based flow cytometery (reference value: 0.019%); format: functional
[4] = biological target: T1, Solute carrier family 2, facilitated glucose transporter member 1 (Homo sapiens) (UniProt P11166); assay: Inhibition of GLUT1 in human MCF7 cells assessed as fold change at 5 uM by Western blot analysis; format: cell-based
T1 sequence (whole entry): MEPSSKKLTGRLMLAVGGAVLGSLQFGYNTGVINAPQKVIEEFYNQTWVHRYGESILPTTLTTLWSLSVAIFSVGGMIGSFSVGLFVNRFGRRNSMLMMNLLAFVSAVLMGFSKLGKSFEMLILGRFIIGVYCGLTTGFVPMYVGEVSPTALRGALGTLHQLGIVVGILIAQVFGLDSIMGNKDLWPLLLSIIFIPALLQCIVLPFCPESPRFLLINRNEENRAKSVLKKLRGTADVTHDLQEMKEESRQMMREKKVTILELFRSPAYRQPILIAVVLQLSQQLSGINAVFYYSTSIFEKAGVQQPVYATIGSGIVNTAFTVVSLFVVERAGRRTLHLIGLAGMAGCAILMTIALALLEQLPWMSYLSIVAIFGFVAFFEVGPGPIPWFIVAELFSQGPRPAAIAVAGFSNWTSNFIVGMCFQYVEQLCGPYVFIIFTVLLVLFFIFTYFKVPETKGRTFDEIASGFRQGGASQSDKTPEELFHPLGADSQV

[5] = biological target: T1, Solute carrier family 2, facilitated glucose transporter member 1 (Homo sapiens); assay: Inhibition of GLUT1 in human MCF7 cells assessed as reduction in lactate production measured after 24 hrs; format: cell-based; conditions: dose 5-20 µM
[6] = tested on: MCF7; assay: Induction of apoptosis in human MCF7 cells assessed as late apoptotic cells at 10 uM incubated for 24 hrs by Annexin V-FITC/7AAD staining based flow cytometery (reference value: 0.68%); format: functional
[7] = tested on: MCF7; assay: Induction of cell cycle arrest in human MCF7 cells assessed as accumulation of cells at G2/M phase at 20 uM by propidium iodide staining based flow cytometry (reference value: 9.72%); format: functional; conditions: time 30 min, 0.5 h
[8] = tested on: MCF7; assay: Anticancer activity against human MCF7 cells assessed as increase in cell apoptosis at 20 uM incubated for 48 hrs relative to control; format: functional
[9] = biological target: T1, Solute carrier family 2, facilitated glucose transporter member 1 (Homo sapiens); assay: Inhibition of GLUT1 in human MCF7 cells assessed as fold change at 10 uM by Western blot analysis; format: cell-based
[10] = tested on: MCF7; assay: Induction of apoptosis in human MCF7 cells assessed as early apoptotic cells at 20 uM incubated for 24 hrs by Annexin V-FITC/7AAD staining based flow cytometery (reference value: 0.50%); format: functional
[11] = tested on: MCF7; assay: Induction of apoptosis in human MCF7 cells assessed as early apoptotic cells at 5 uM incubated for 24 hrs by Annexin V-FITC/7AAD staining based flow cytometery (reference value: 0.50%); format: functional
[12] = tested on: MCF7; assay: Induction of oxidative stress in human MCF7 cells assessed as increase in intracellular ROS level at 5 to 20 uM incubated for 24 hrs; format: functional, cell-based; conditions: dose 5-20 µM
[13] = biological target: T2, Solute carrier family 2, facilitated glucose transporter member 1 (Homo sapiens, UniProt P11166); assay: Binding affinity to GLUT1 (unknown origin) assessed as dissociation constant at 800 uM by MST assay
T2 sequence (P11166 whole entry): T1 sequence (whole entry)

[14] = biological target: T2, Solute carrier family 2, facilitated glucose transporter member 1; assay: Inhibition of GLUT1 in human MCF7 cells assessed as ATP production incubated for 24 hrs in presence of 0.1 mM glucose; format: cell-based
[15] = tested on: MCF7; assay: Induction of cell cycle arrest in human MCF7 cells assessed as accumulation of cells at G2/M phase at 5 uM by propidium iodide staining based flow cytometry (reference value: 9.72%); format: functional; conditions: time 30 min, 0.5 h
[16] = tested on: MCF7; assay: Induction of apoptosis in human MCF7 cells assessed as necrotic cells at 5 uM incubated for 24 hrs by Annexin V-FITC/7AAD staining based flow cytometery (reference value: 0.019%); format: functional
[17] = tested on: MCF7; assay: Induction of apoptosis in human MCF7 cells assessed as necrotic cells at 10 uM incubated for 24 hrs by Annexin V-FITC/7AAD staining based flow cytometery (reference value: 0.019%); format: functional
[18] = biological target: T1, Solute carrier family 2, facilitated glucose transporter member 1 (Homo sapiens); assay: Inhibition of GLUT1 in human MCF7 cells assessed as fold change at 20 uM by Western blot analysis; format: cell-based
[19] = Cytotoxicity against human MCF7 cells assessed as reduction in cell viability incubated for 24 hrs by MTT assay; format: toxicity, cell-based
[20] = biological target: T2, Solute carrier family 2, facilitated glucose transporter member 1; assay: Inhibition of GLUT1 in human MCF7 cells assessed as ATP production incubated for 24 hrs in presence of 10 mM glucose; format: cell-based
[21] = tested on: MCF7; assay: Induction of apoptosis in human MCF7 cells assessed as viable cells at 20 uM incubated for 24 hrs by Annexin V-FITC/7AAD staining based flow cytometery (reference value: 98.8%); format: functional; conditions: read-out: Activity
[22] = tested on: MCF7; assay: Induction of apoptosis in human MCF7 cells assessed as viable cells at 10 uM incubated for 24 hrs by Annexin V-FITC/7AAD staining based flow cytometery (reference value: 98.8%); format: functional; conditions: read-out: Activity
[23] = biological target: T1, Solute carrier family 2, facilitated glucose transporter member 1 (Homo sapiens); assay: Inhibition of GLUT1 in human MCF7 cells assessed as decrease in extracellular acidification rate at 5 to 20 uM measured for 24 hrs by Seahorse XFe96 analyzer; format: cell-based; conditions: dose 5-20 µM
[24] = biological target: T1, Solute carrier family 2, facilitated glucose transporter member 1 (Homo sapiens); assay: Inhibition of GLUT1 in human MCF7 cells assessed as reduction in maximal respiratory capacity at 5 to 20 uM incubated for 24 hrs by Seahorse XFe96 analyzer; format: cell-based; conditions: dose 5-20 µM
[25] = tested on: MCF7; assay: Induction of oxidative stress in human MCF7 cells assessed as fold increase in intracellular ROS level at 20 uM incubated for 24 hrs; format: functional
[26] = tested on: MCF7; assay: Induction of apoptosis in human MCF7 cells assessed as late apoptotic cells at 5 uM incubated for 24 hrs by Annexin V-FITC/7AAD staining based flow cytometery (reference value: 0.68%); format: functional
[27] = tested on: MCF7; assay: Anticancer activity against human MCF7 cells assessed as increase in cell necrosis at 20 uM incubated for 48 hrs relative to control; format: functional
[28] = biological target: T1, Solute carrier family 2, facilitated glucose transporter member 1 (Homo sapiens); assay: Inhibition of human GLUT1 in HEK293FT cells assessed as reduction in glucose uptake at 10 uM incubated for 24 hrs and further incubated for 1 hr under dark condition by flow cytometry; format: cell-based; conditions: time 25.0 hrs
[29] = biological target: T1, Solute carrier family 2, facilitated glucose transporter member 1 (Homo sapiens); assay: Inhibition of GLUT1 in human MCF7 cells assessed as reduction in GLUT1 degradation by CETSA assay; format: cell-based
[30] = tested on: MCF7; assay: Induction of apoptosis in human MCF7 cells assessed as viable cells at 5 uM incubated for 24 hrs by Annexin V-FITC/7AAD staining based flow cytometery (reference value: 98.8%); format: functional; conditions: read-out: Activity
[31] = tested on: MCF7; assay: Induction of cell cycle arrest in human MCF7 cells assessed as accumulation of cells at G2/M phase at 10 uM by propidium iodide staining based flow cytometry (reference value: 9.72%); format: functional; conditions: time 30 min, 0.5 h
[32] = biological target: T1, Solute carrier family 2, facilitated glucose transporter member 1 (Homo sapiens); assay: Inhibition of GLUTI (unknown origin)
[33] = biological target: T1, Solute carrier family 2, facilitated glucose transporter member 1 (Homo sapiens); assay: Agonist activity at GLUTI (unknown origin); conditions: filed as agonist

Question: For `CC(=O)O[C@H]1[C@@H]2O[C@]2([C@H](C)[C@H]2CC(CO)=C(C)C(=O)O2)[C@@]2(C)CCC3C(C[C@@H](O)[C@@]4(O)CC=CC(=O)[C@]34C)[C@@]12O` (some centres not stated), which Activity [1] is on record?
Answer: Its Activity is 60%.

Question: And the Activity [2]?
Answer: Its Activity is 14.1%.

Question: And the Activity [3]?
Answer: Its Activity is 0.92%.

Question: What about the fold change (FC) [4] of the same molecule?
Answer: The fold change (FC) was 0.68.

Question: And the inhibition [5]?
Answer: The inhibition was “Dose-Dependent Effect”.

Question: What about the Activity [6] of the same molecule?
Answer: Its Activity is 46.7%.

Question: And the Activity [7]?
Answer: Its Activity is 47.6%.

Question: What about the Activity [8] of the same molecule?
Answer: The Activity was 15%.

Question: What about the fold change (FC) [9] of the same molecule?
Answer: The fold change (FC) was 0.44.

Question: And the Activity [10]?
Answer: Its Activity is 14.9%.

Question: What about the Activity [11] of the same molecule?
Answer: Its Activity is 5.76%.

Question: What about the Activity [12] of the same molecule?
Answer: The Activity was “Dose-Dependent Effect”.

Question: What about the pKd [13] of the same molecule?
Answer: The pKd was 5.59.

Question: And the pIC50 [14]?
Answer: The pIC50 was 5.46.

Question: What about the Activity [15] of the same molecule?
Answer: The Activity was 11.3%.

Question: And the Activity [16]?
Answer: Its Activity is 3.84%.

Question: And the Activity [17]?
Answer: The Activity was 4.56%.

Question: What about the fold change (FC) [18] of the same molecule?
Answer: Its fold change (FC) is 0.4.

Question: And the IC50 at 24 h [19]?
Answer: Its IC50 at 24 h is 18 µM.

Question: And the pIC50 [20]?
Answer: Its pIC50 is 3.75.

Question: What about the viability at 20 µM [21] of the same molecule?
Answer: Its viability at 20 µM is 24.2%.

Question: And the viability at 10 µM [22]?
Answer: The viability at 10 µM was 34.6%.

Question: And the inhibition [23]?
Answer: The inhibition was “Active”.

Question: What about the inhibition [24] of the same molecule?
Answer: Its inhibition is “Active”.

Question: And the “fold change (FC)” value [25]?
Answer: Its value is 2.8.

Question: And the Activity [26]?
Answer: The Activity was 15%.

Question: And the Activity [27]?
Answer: Its Activity is 60%.

Question: What about the inhibition [28] of the same molecule?
Answer: The inhibition was “Active”.

Question: What about the inhibition [29] of the same molecule?
Answer: The inhibition was “Active”.

Question: And the viability at 5 µM [30]?
Answer: Its viability at 5 µM is 75.4%.

Question: And the Activity [31]?
Answer: The Activity was 22%.

Question: With `CC(=O)O[C@H]1C[C@H]([C@H](C)[C@@H]2OC(=O)C(C)=C(C)[C@@H]2O)[C@@]2(C)CCC3C(C[C@@H](O)[C@@]4(O)CC=CC(=O)[C@]34C)[C@@]12O` (some centres not stated) as the molecule, how does the inhibition [32] read?
Answer: The inhibition was “Active”.

Question: What about the pKd [13] of the same molecule?
Answer: The pKd was 5.62.

Question: And the inhibition [29]?
Answer: Its inhibition is “Active”.

Question: What about the Activity [33] of the same molecule?
Answer: Its Activity is “Active”.

Question: Which Activity [33] does the source give for `CC(=O)O[C@H]1C=C([C@H](C)[C@H]2CC(C)=C(C)C(=O)O2)[C@@]2(C)CC[C@H]3[C@@H](C[C@H]4O[C@]45[C@@H](O)C=CC(=O)[C@]35C)[C@@]12O` here?
Answer: The Activity was “Active”.

Question: For `C[C@@]12C[C@H]3OC(=O)[C@@H]1CO[C@]14O[C@@]5([C@H]2C1=O)[C@@]3(C)OC(=O)[C@@]5(O)CC[C@H]1[C@H]4C[C@H]2O[C@]23CC=CC(=O)[C@]13C`, which Activity [33] is on record?
Answer: Its Activity is “Active”.

Question: With `CC(=O)O[C@H]1C[C@@](O)([C@H](C)[C@H]2CC(C)=C(C)C(=O)O2)[C@@]2(C)CC[C@H]3[C@@H](C[C@H]4O[C@]45CC=CC(=O)[C@]35C)[C@@]12O` as the molecule, how does the pKd [13] read?
Answer: The pKd was 5.59.

Question: What about the inhibition [29] of the same molecule?
Answer: The inhibition was “Active”.

Question: And the Activity [33]?
Answer: Its Activity is “Active”.

Question: With `CC(=O)O[C@H]1C=C([C@H](C)[C@H]2CC(C)=C(C)C(=O)O2)[C@@]2(C)CC[C@H]3C(C[C@@H](O)[C@@]4(Cl)CC=CC(=O)[C@]34C)[C@]12O` (some centres not stated) as the molecule, how does the inhibition [32] read?
Answer: The inhibition was “Active”.

Question: With `CC(=O)O[C@H]1C[C@@](O)([C@H](C)[C@H]2CC(C)=C(C)C(=O)O2)[C@@]2(C)CC[C@H]3[C@@H](C[C@H]4O[C@]45[C@@H](O)C=CC(=O)[C@]35C)[C@@]12O` as the molecule, how does the Activity [33] read?
Answer: Its Activity is “Active”.

Source: ChEMBL document CHEMBL5344433, “Target Separation and Potential Anticancer Activity of Withanolide-Based Glucose Transporter Protein 1 Inhibitors from Physalis angulata var. villosa” (J Nat Prod, 2024)
